Laboratory results as given in the NIST ThermoML archive (doi:10.1021/je500977g).

Assay: mn = molality of the nth substance listed, in mol/kg
Conditions: Liquid

C[N+](C)(C)[O-] [trimethylamine oxide] + O
mass density [kg/m3]
Conditions	298.15 K	308.15 K	323.15 K
101 kPa, Vibrating tube method, m1 = 0.0875	–	994.21	988.2
101 kPa, Vibrating tube method, m1 = 0.1707	–	994.38	988.37
101 kPa, Vibrating tube method, m1 = 0.2465	–	994.54	988.53
101 kPa, Vibrating tube method, m1 = 0.3259	–	994.71	988.7
101 kPa, Vibrating tube method, m1 = 0.4018	–	994.88	988.86
101 kPa, Vibrating tube method, m1 = 0.5862	–	995.31	989.27
101 kPa, Vibrating tube method, m1 = 0.7963	–	995.8	989.75
101 kPa, Vibrating tube method, m1 = 1.039	–	996.41	990.34
101 kPa, Vibrating tube method, m1 = 1.373	–	997.27	991.15
101 kPa, Vibrating tube method, m1 = 1.923	–	998.77	992.62
101 kPa, Vibrating tube method, m1 = 3.259	–	1002.83	996.37
101 kPa, Vibrating tube method, m1 = 4.325	–	1006.27	999.45
10000 kPa, Constant-volume piezometry, m1 = 0.1707	–	998.64	992.59
10000 kPa, Constant-volume piezometry, m1 = 0.3259	–	998.93	992.87
10000 kPa, Constant-volume piezometry, m1 = 0.5862	–	999.44	993.35
10000 kPa, Constant-volume piezometry, m1 = 1.039	–	1000.4	994.29
10000 kPa, Constant-volume piezometry, m1 = 1.373	–	1001.17	995.02
10000 kPa, Constant-volume piezometry, m1 = 1.923	–	1002.54	996.38
10000 kPa, Constant-volume piezometry, m1 = 3.259	–	1006.31	999.89
10000 kPa, Constant-volume piezometry, m1 = 4.325	–	1009.52	1002.81
25000 kPa, Constant-volume piezometry, m1 = 0.1707	–	1004.94	998.81
25000 kPa, Constant-volume piezometry, m1 = 0.3259	–	1005.15	999.01
25000 kPa, Constant-volume piezometry, m1 = 0.5862	–	1005.53	999.37
25000 kPa, Constant-volume piezometry, m1 = 1.039	–	1006.27	1000.14
25000 kPa, Constant-volume piezometry, m1 = 1.373	–	1006.92	1000.75
25000 kPa, Constant-volume piezometry, m1 = 1.923	–	1008.08	1001.93
25000 kPa, Constant-volume piezometry, m1 = 3.259	1015.13	1011.45	1005.1
25000 kPa, Constant-volume piezometry, m1 = 4.325	1018.32	1014.35	1007.83
50000 kPa, Constant-volume piezometry, m1 = 0.1707	1018.48	1015.02	1008.75
50000 kPa, Constant-volume piezometry, m1 = 0.3259	1018.55	1015.1	1008.83
50000 kPa, Constant-volume piezometry, m1 = 0.5862	1018.73	1015.28	1009.01
50000 kPa, Constant-volume piezometry, m1 = 1.039	1019.17	1015.72	1009.49
50000 kPa, Constant-volume piezometry, m1 = 1.373	1019.6	1016.14	1009.9
50000 kPa, Constant-volume piezometry, m1 = 1.923	1020.48	1016.98	1010.79
50000 kPa, Constant-volume piezometry, m1 = 3.259	1023.44	1019.69	1013.38
50000 kPa, Constant-volume piezometry, m1 = 4.325	1026.18	1022.07	1015.77
75000 kPa, Constant-volume piezometry, m1 = 0.1707	1028.27	1024.62	1018.2
75000 kPa, Constant-volume piezometry, m1 = 0.3259	1028.22	1024.58	1018.18
75000 kPa, Constant-volume piezometry, m1 = 0.5862	1028.19	1024.56	1018.19
75000 kPa, Constant-volume piezometry, m1 = 1.039	1028.3	1024.68	1018.41
75000 kPa, Constant-volume piezometry, m1 = 1.373	1028.51	1024.9	1018.64
75000 kPa, Constant-volume piezometry, m1 = 1.923	1029.06	1025.43	1019.23
75000 kPa, Constant-volume piezometry, m1 = 3.259	1031.32	1027.51	1021.32
75000 kPa, Constant-volume piezometry, m1 = 4.325	1033.57	1029.5	1023.38
100000 kPa, Constant-volume piezometry, m1 = 0.1707	1037.61	1033.77	1027.22
100000 kPa, Constant-volume piezometry, m1 = 0.3259	1037.41	1033.59	1027.09
100000 kPa, Constant-volume piezometry, m1 = 0.5862	1037.18	1033.39	1026.94
100000 kPa, Constant-volume piezometry, m1 = 1.039	1036.99	1033.25	1026.92
100000 kPa, Constant-volume piezometry, m1 = 1.373	1036.98	1033.26	1027
100000 kPa, Constant-volume piezometry, m1 = 1.923	1037.22	1033.48	1027.3
100000 kPa, Constant-volume piezometry, m1 = 3.259	1038.74	1034.99	1028.88
100000 kPa, Constant-volume piezometry, m1 = 4.325	1040.54	1036.64	1030.78
